Reference: patent US20230293458A1, “MULTIBIOTIC AGENTS AND METHODS OF USING THE SAME” (Flagship Pioneering Innovations V, Inc., priority 2017, published 2023)

Key:
[1] = Assay 1. Stability of multibiotic agents in a buffer; assay type: physicochemical; parameters: key to Assay 1 (% Remaining @ 24 hours): A: <25% of the tested compound remaining; B: 25-75% of the tested compound remaining; C: >75% of the tested compound remaining; D: no change in the amount of the tested compound; details: for degradation in Assay 1 (in words): buffer stability; for Assay 1 (% Remaining @ 24 hours): phosphate buffer pH 2, 4, 6 and 8, RT, 2 μM, LC/MS/MS
Experimental: Assay 1. Stability of multibiotic agents in a buffer. This assay can be used for the assessment of the stability of a multibiotic agent at different physiological pH levels.
Compounds were diluted in DMSO, and the resulting solution was added in the appropriate quantity to phosphate buffer (pH levels 2, 4, 6, and 8) to reach a total sample concentration of 2 μM. Compounds were incubated at RT, and aliquots were removed at time points 0, 60, 120, 360 and 1440 minutes and analyzed for purity by LC/MS/MS.

[2] = Stability of multibiotic agents in Simulated Gastric Fluid (SGF); assay type: in vitro ADME; details: simulated gastric fluid pH 1.6 with pepsin, 37° C., 1 μM
How it was run: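 Compounds were incubated at 1 μM final at 37 °C in simulated gastric fluid containing NaCl, pH 1.6, with FaSSIF powder and 0.1 mg/mL pepsin. Aliquots were taken at T0 and at regular intervals and quenched with acetonitrile. Degradation rates were determined by LC/MS.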

[3] = Stability of multibiotic agents in Simulated Intestinal Fluid (SIF); assay type: in vitro ADME; details: simulated intestinal fluid pH 6.7 with pancreatin, 37° C., 1 μM
How it was run: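 Compounds at 1 μM final (from 1 mM DMSO stock) incubated at 37 °C with agitation in fresh SIF (FaSSIF plus pancreatin in pH 6.7 phosphate buffer). Aliquots taken at T0 and regular intervals, quenched with 1 volume acetonitrile. Degradation rate determined by LC/MS.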

O=C(CCCc1ccccc1)OC1OC[C@@H](OC(=O)CCCc2ccccc2)[C@H](OC(=O)CCCc2ccccc2)[C@H]1OC(=O)CCCc1ccccc1 (mixture of isomers) [Example 24, [(3R,4S,5R)-4,5,6-tris(4-phenylbutanoyloxy)tetrahydropyran-3-yl] 4-phenylbutanoate]
degradation in Assay 1 (in words) [1]: no apparent degradation | Assay 1 (% Remaining @ 24 hours) [1]: D

CCCC(=O)OC1OC[C@@H](OC(=O)CCC)[C@H](OC(=O)CCC)[C@H]1OC(=O)CCC (mixture of isomers) [Example 29, [(3R,4S,5R)-4,5,6-tri(butanoyloxy)tetrahydropyran-3-yl] butanoate]
degradation in Assay 1 (in words) [1]: no apparent degradation | Assay 1 (% Remaining @ 24 hours) [1]: D

CCCC(=O)O[C@@H]1[C@@H](OC(=O)CCC)[C@H](Oc2ccc(N)cc2C(=O)O)OC[C@H]1OC(=O)CCC [Example 21, 5-amino-2-[(2S,3R,4S,5R)-3,4,5-tri(butanoyloxy)tetrahydropyran-2-yl]oxy-benzoic acid]
degradation in Assay 1 (in words) [1]: no apparent degradation | Assay 1 (% Remaining @ 24 hours) [1]: D | Assay 2 (SGF) (% Remaining @ 4 hours) [2]: C (>75% of the tested compound remaining) | Assay 3 (SIF) (% @ Remaining 4 hours) [3]: C (>75% of the tested compound remaining)

CCCC(=O)OC[C@@H](OC(=O)CCC)[C@@H](OC(=O)CCC)[C@H](OC(=O)CCC)[C@@H](OC(=O)CCC)C(=O)Oc1ccc(/C=C/c2cc(OC(=O)[C@H](OC(=O)CCC)[C@@H](OC(=O)CCC)[C@H](OC(=O)CCC)[C@@H](COC(=O)CCC)OC(=O)CCC)cc(OC(=O)[C@H](OC(=O)CCC)[C@@H](OC(=O)CCC)[C@H](OC(=O)CCC)[C@@H](COC(=O)CCC)OC(=O)CCC)c2)cc1 [Example 164, [4-[(E)-2-[3,5-bis[[(2R,3S,4R,5R)-2,3,4,5,6-penta(butanoyloxy)hexanoyl]oxy]phenyl]vinyl]phenyl] (2R,3S,4R,5R)-2,3,4,5,6-penta(butanoyloxy)hexanoate]
Assay 2 (SGF) (% Remaining @ 4 hours) [2]: B (25-75% of the tested compound remaining) | Assay 3 (SIF) (% @ Remaining 4 hours) [3]: B (25-75% of the tested compound remaining)

CCC(=O)OC1OC[C@@H](OC(=O)CC)[C@H](OC(=O)CC)[C@H]1OC(=O)CC (stereo partly drawn) [Example 165, [(3R,4S,5R)-4,5,6-tri(propanoyloxy)tetrahydropyran-3-yl] propanoate]
Assay 2 (SGF) (% Remaining @ 4 hours) [2]: C (>75% of the tested compound remaining) | Assay 3 (SIF) (% @ Remaining 4 hours) [3]: A (<25% of the tested compound remaining)

CCC(=O)O[C@@H]1[C@@H](OC(=O)CC)[C@H](OC(=O)CC)CO[C@H]1O [Example 166, [(3R,4S,5R,6R)-6-hydroxy-4,5-di(propanoyloxy)tetrahydropyran-3-yl] propanoate]
Assay 2 (SGF) (% Remaining @ 4 hours) [2]: C (>75% of the tested compound remaining) | Assay 3 (SIF) (% @ Remaining 4 hours) [3]: B (25-75% of the tested compound remaining)

CC(=O)Oc1ccc(-c2oc3cc(OC(C)=O)cc(OC(C)=O)c3c(=O)c2OC(C)=O)cc1 [Example 169, [4-(3,5,7-triacetoxy-4-oxo-chromen-2-yl)phenyl] acetate]
Assay 2 (SGF) (% Remaining @ 4 hours) [2]: C (>75% of the tested compound remaining) | Assay 3 (SIF) (% @ Remaining 4 hours) [3]: A (<25% of the tested compound remaining)

CC(=O)Oc1ccc(C2CC(=O)c3c(OC(C)=O)cc(OC(C)=O)cc3O2)cc1 (stereo not shown) [Example 170, [4-(5,7-diacetoxy-4-oxo-chroman-2-yl)phenyl] acetate]
Assay 2 (SGF) (% Remaining @ 4 hours) [2]: C (>75% of the tested compound remaining) | Assay 3 (SIF) (% @ Remaining 4 hours) [3]: A (<25% of the tested compound remaining)

CCCC(=O)Oc1ccc(C2CC(=O)c3c(OC(=O)CCC)cc(OC(=O)CCC)cc3O2)cc1 (stereo not shown) [Example 171, [4-[5,7-di(butanoyloxy)-4-oxo-chroman-2-yl]phenyl] butanoate]
Assay 2 (SGF) (% Remaining @ 4 hours) [2]: B (25-75% of the tested compound remaining) | Assay 3 (SIF) (% @ Remaining 4 hours) [3]: A (<25% of the tested compound remaining)

C[C@@H](O)CCOC(=O)C[C@@H](C)O [Example 172, [(3R)-3-hydroxybutyl] (3R)-3-hydroxybutanoate]
Assay 2 (SGF) (% Remaining @ 4 hours) [2]: C (>75% of the tested compound remaining) | Assay 3 (SIF) (% @ Remaining 4 hours) [3]: C (>75% of the tested compound remaining)

CCCC(=O)O[C@H](C)CCOC(=O)C[C@@H](C)OC(=O)CCC [Example 173, [(3R)-3-butanoyloxybutyl] (3R)-3-butanoyloxybutanoate]
Assay 2 (SGF) (% Remaining @ 4 hours) [2]: C (>75% of the tested compound remaining) | Assay 3 (SIF) (% @ Remaining 4 hours) [3]: A (<25% of the tested compound remaining)

CC(=O)Oc1cc(OC(C)=O)c2c(=O)c(OC(C)=O)c(-c3cc(OC(C)=O)c(OC(C)=O)c(OC(C)=O)c3)oc2c1 [Example 177, [3,5-diacetoxy-4-oxo-2-(3,4,5-triacetoxyphenyl)chromen-7-yl] acetate]
Assay 2 (SGF) (% Remaining @ 4 hours) [2]: C (>75% of the tested compound remaining) | Assay 3 (SIF) (% @ Remaining 4 hours) [3]: A (<25% of the tested compound remaining)

CC(=O)OCC[C@@H](C)OC(=O)Oc1ccc(/C=C/c2cc(OC(=O)O[C@H](C)CCOC(C)=O)cc(OC(=O)O[C@H](C)CCOC(C)=O)c2)cc1 [Example 178, [(3R)-3-[4-[(E)-2-[3,5-bis[[(1R)-3-acetoxy-1-methyl-propoxy]carbonyloxy]phenyl]vinyl]phenoxy]carbonyloxybutyl] acetate]
Assay 2 (SGF) (% Remaining @ 4 hours) [2]: C (>75% of the tested compound remaining) | Assay 3 (SIF) (% @ Remaining 4 hours) [3]: A (<25% of the tested compound remaining)

CC(=O)OC[C@H]1O[C@@H](Oc2c(C)c(C)c3c(c2C)CC[C@@](C)(CCC[C@H](C)CCC[C@H](C)CCCC(C)C)O3)[C@H](OC(C)=O)[C@@H](OC(C)=O)[C@@H]1OC(C)=O [Example 180, [(2R,3R,4S,5R,6S)-3,4,5-triacetoxy-6-[(2R)-2,5,7,8-tetramethyl-2-[(4R,8R)-4,8,12-trimethyltridecyl]chroman-6-yl]oxy-tetrahydropyran-2-yl]methyl acetate]
Assay 2 (SGF) (% Remaining @ 4 hours) [2]: C (>75% of the tested compound remaining) | Assay 3 (SIF) (% @ Remaining 4 hours) [3]: C (>75% of the tested compound remaining)

C[C@@H]1CCOC(C)(C(=O)Oc2ccc(/C=C/c3cc(OC(=O)C4(C)OCC[C@@H](C)O4)cc(OC(=O)C4(C)OCC[C@@H](C)O4)c3)cc2)O1 (stereo partly drawn) [Example 182, [4-[(E)-2-[3,5-bis[[(4R)-2,4-dimethyl-1,3-dioxane-2-carbonyl]oxy]phenyl]vinyl]phenyl] (4R)-2,4-dimethyl-1,3-dioxane-2-carboxylate]
Assay 2 (SGF) (% Remaining @ 4 hours) [2]: C (>75% of the tested compound remaining) | Assay 3 (SIF) (% @ Remaining 4 hours) [3]: C (>75% of the tested compound remaining)

Cc1c(C)c2c(c(C)c1OC(=O)C1OCC[C@@H](C)O1)CC[C@@](C)(CCC[C@H](C)CCC[C@H](C)CCCC(C)C)O2 (stereo partly drawn) [Example 183, [(2R)-2,5,7,8-tetramethyl-2-[(4R,8R)-4,8,12-trimethyltridecyl]chroman-6-yl] (4R)-4-methyl-1,3-dioxane-2-carboxylate]
Assay 2 (SGF) (% Remaining @ 4 hours) [2]: C (>75% of the tested compound remaining) | Assay 3 (SIF) (% @ Remaining 4 hours) [3]: A (<25% of the tested compound remaining)

C=C1CC[C@H](OC(=O)[C@H](OC(=O)CCC)[C@@H](OC(=O)CCC)[C@H](OC(=O)CCC)[C@@H](COC(=O)CCC)OC(=O)CCC)C/C1=C/C=C1\CCC[C@]2(C)[C@@H]([C@H](C)CCCC(C)C)CC[C@@H]12 [Example 184, [(1S,3Z)-3-[(2E)-2-[(1R,3aS,7aR)-1-[(1R)-1,5-dimethylhexyl]-7a-methyl-2,3,3a,5,6,7-hexahydro-1H-inden-4-ylidene]ethylidene]-4-methylene-cyclohexyl] (2R,3S,4R,5R)-2,3,4,5,6-penta(butanoyloxy)hexanoate]
Assay 2 (SGF) (% Remaining @ 4 hours) [2]: B (25-75% of the tested compound remaining) | Assay 3 (SIF) (% @ Remaining 4 hours) [3]: A (<25% of the tested compound remaining)

C=C1CC[C@H](OC(=O)C2OCC[C@@H](C)O2)C/C1=C/C=C1\CCC[C@]2(C)[C@@H]([C@H](C)CCCC(C)C)CC[C@@H]12 (stereo partly drawn) [Example 186, [(1S,3Z)-3-[(2E)-2-[(1R,3aS,7aR)-1-[(1R)-1,5-dimethylhexyl]-7a-methyl-2,3,3a,5,6,7-hexahydro-1H-inden-4-ylidene]ethylidene]-4-methylene-cyclohexyl] (4R)-4-methyl-1,3-dioxane-2-carboxylate]
Assay 2 (SGF) (% Remaining @ 4 hours) [2]: C (>75% of the tested compound remaining) | Assay 3 (SIF) (% @ Remaining 4 hours) [3]: C (>75% of the tested compound remaining)

C=C1CC[C@H](OC(=O)C2(C)OCC[C@@H](C)O2)C/C1=C/C=C1\CCC[C@]2(C)[C@@H]([C@H](C)CCCC(C)C)CC[C@@H]12 (stereo partly drawn) [Example 187, [(1S,3Z)-3-[(2E)-2-[(1R,3aS,7aR)-1-[(1R)-1,5-dimethylhexyl]-7a-methyl-2,3,3a,5,6,7-hexahydro-1H-inden-4-ylidene]ethylidene]-4-methylene-cyclohexyl] (4R)-2,4-dimethyl-1,3-dioxane-2-carboxylate]
Assay 2 (SGF) (% Remaining @ 4 hours) [2]: B (25-75% of the tested compound remaining) | Assay 3 (SIF) (% @ Remaining 4 hours) [3]: C (>75% of the tested compound remaining)
